Cc1ccc2cc(C)ccc2c1
Conditions	solubility (mole fraction)
in cyclohexane, 293.18 K	0.03
in cyclohexane, 298.86 K	0.0398
in cyclohexane, 305.57 K	0.0513
in cyclohexane, 312.3 K	0.0714
in cyclohexane, 318.76 K	0.096
in cyclohexane, 323.07 K	0.115
in cyclohexane, 325.79 K	0.134
in cyclohexane, 333.08 K	0.187
in cyclohexane, 339.97 K	0.253
in ethyl acetate, 287.56 K	0.0424
in ethyl acetate, 292.27 K	0.0494
in ethyl acetate, 298.27 K	0.0585
in ethyl acetate, 305.69 K	0.0775
in ethyl acetate, 311.52 K	0.0957
in ethyl acetate, 318.89 K	0.123
in ethyl acetate, 325.2 K	0.158
in ethyl acetate, 332.01 K	0.2
in ethyl acetate, 338.58 K	0.256
in isooctane, 288.36 K	0.0234
in isooctane, 293.19 K	0.0294
in isooctane, 298.62 K	0.0344
in isooctane, 306.77 K	0.0487
in isooctane, 315.41 K	0.0725
in isooctane, 322.03 K	0.0905
in isooctane, 327.1 K	0.113
in isooctane, 334.57 K	0.149
in isooctane, 341.2 K	0.197
in isopropanol, 286.65 K	0.0054
in isopropanol, 294.55 K	0.0072
in isopropanol, 301.45 K	0.0098
in isopropanol, 309.65 K	0.0136
in isopropanol, 315.75 K	0.0174
in isopropanol, 323.22 K	0.023
in isopropanol, 330.55 K	0.0297
in isopropanol, 335.95 K	0.0371
in isopropanol, 341.65 K	0.0517
in n-heptane, 288.85 K	0.0289
in n-heptane, 293.58 K	0.0359
in n-heptane, 298.72 K	0.0433
in n-heptane, 304.56 K	0.0529
in n-heptane, 311.77 K	0.0632
in n-heptane, 317.8 K	0.0775
in n-heptane, 324.79 K	0.0979
in n-heptane, 332.39 K	0.132
in n-heptane, 339.42 K	0.17
in n-propyl acetate, 286.65 K	0.0485
in n-propyl acetate, 293.5 K	0.0638
in n-propyl acetate, 300.85 K	0.0815
in n-propyl acetate, 307.41 K	0.103
in n-propyl acetate, 313.85 K	0.127
in n-propyl acetate, 320.65 K	0.159
in n-propyl acetate, 328.22 K	0.206
in n-propyl acetate, 333.46 K	0.245
in n-propyl acetate, 338.17 K	0.289
